The test system of assay [1] is MCF7. Description: Cell cycle arrest in human MCF7 cells assessed as accumulation at G0/G1 phase at IC50 after 48 hrs by propidium iodide staining based flow cytometric analysis (reference value: 59.5%). Format: functional. A general note: In flow cytometry, cells or beads pass a laser one at a time.
Assay [2] has as its system MCF7. Nature of the assay: Induction of apoptosis in human MCF7 cells assessed as rounded cells at IC50 after 24 hrs by inverted phase contrast microscopic analysis. Format: functional, cell-based.
For assay [3], the system named is MCF7. Nature of the assay: Induction of apoptosis in human MCF7 cells assessed as early apoptotic cells at IC50 after 24 hrs by annexin V-FITC/propidium iodide staining based flow cytometric analysis (reference value: 0.1%). Format: functional.
In assay [4] the test system is MCF7. Description: Cell cycle arrest in human MCF7 cells assessed as accumulation at G2/M phase at IC50 after 24 hrs by propidium iodide staining based flow cytometric analysis (reference value: 24.2%). It is filed as functional.
The test system of assay [5] is MCF7. Nature of the assay: Induction of apoptosis in human MCF7 cells assessed as early apoptotic cells at IC50 after 48 hrs by annexin V-FITC/propidium iodide staining based flow cytometric analysis (reference value: 0.1%). Format: functional.
In assay [6] the test system is MCF7. Nature of the assay: Induction of apoptosis in human MCF7 cells assessed as dead cells at IC50 after 24 hrs by annexin V-FITC/propidium iodide staining based flow cytometric analysis (reference value: 0.2%). It is filed as functional.
The test system of assay [7] is MCF7. Nature of the assay: Cytotoxicity against human MCF7 cells assessed as growth inhibition after 72 hrs by MTT assay. Particulars: MCF7, 72 h. Format: functional, cell-based.
The subject of assay [8] is MCF7. Nature of the assay: Induction of apoptosis in human MCF7 cells assessed as viable cells at IC50 after 48 hrs by annexin V-FITC/propidium iodide staining based flow cytometric analysis (reference value: 99.8%). Format: functional.
The test system of assay [9] is MCF7. Nature of the assay: Induction of ROS generation in human MCF7 cells at IC50 after 24 hrs by CM-H2DCFDA staining based flow cytometric analysis (reference value: 12.6%). Format: functional.
The test system of assay [10] is MCF7. Description: Induction of apoptosis in human MCF7 cells assessed as increase in cleaved caspase-9 level at IC50 after 48 hrs by western blot analysis. It is filed as functional, cell-based. Background: Immunoblotting shows a protein as a band on a membrane.
Assay [11] deals with MCF7. Description: Cell cycle arrest in human MCF7 cells assessed as accumulation at S phase at IC50 after 48 hrs by propidium iodide staining based flow cytometric analysis (reference value: 16.3%). It is filed as functional.
Assay [12] relates to MCF7. Description: Induction of apoptosis in human MCF7 cells assessed as dead cells at IC50 after 48 hrs by annexin V-FITC/propidium iodide staining based flow cytometric analysis (reference value: 0.2%). Format: functional.
Assay [13] has as its system MCF7. Nature of the assay: Induction of apoptosis in human MCF7 cells assessed as viable cells at IC50 after 24 hrs by annexin V-FITC/propidium iodide staining based flow cytometric analysis (reference value: 99.8%). It is filed as functional.
Assay [14] concerns MCF7. Description: Induction of apoptosis in human MCF7 cells assessed as increase in cleaved PARP-1 level at IC50 after 48 hrs by western blot analysis. Format: functional, cell-based.
Assay [15] deals with MCF7. Nature of the assay: Induction of apoptosis in human MCF7 cells assessed as depolarized mitochondrial membrane at IC50 after 48 hrs by JC-1 dye based FACS analysis (reference value: 10%). It is filed as functional.
The subject of assay [16] is MCF7. Description: Cell cycle arrest in human MCF7 cells assessed as accumulation at G2/M phase at IC50 after 48 hrs by propidium iodide staining based flow cytometric analysis (reference value: 24.2%). It is filed as functional.
The subject of assay [17] is MCF7. Nature of the assay: Cell cycle arrest in human MCF7 cells assessed as accumulation at G0/G1 phase at IC50 after 24 hrs by propidium iodide staining based flow cytometric analysis (reference value: 59.5%). It is filed as functional.
Assay [18] has as its system MCF7. Nature of the assay: Induction of apoptosis in human MCF7 cells assessed as depolarized mitochondrial membrane at IC50 after 24 hrs by JC-1 dye based FACS analysis (reference value: 10%). Format: functional.
Assay [19] concerns MCF7. Description: Induction of apoptosis in human MCF7 cells assessed as ratio of depolarized to polarized mitochondrial membrane at IC50 by JC-1 dye based FACS analysis. It is filed as functional, cell-based. Particulars: TDE = time-dependent effect.
For assay [20], the system named is MCF7. Nature of the assay: Induction of apoptosis in human MCF7 cells assessed as progressive cell detachment at IC50 after 24 hrs by inverted phase contrast microscopic analysis. Format: functional, cell-based.
In assay [21] the test system is MCF7. Description: Induction of apoptosis in human MCF7 cells assessed as polarized mitochondrial membrane at IC50 after 24 hrs by JC-1 dye based FACS analysis (reference value: 90%). It is filed as functional.
Assay [22] deals with MCF7. Nature of the assay: Cell cycle arrest in human MCF7 cells assessed as accumulation at S phase at IC50 after 24 hrs by propidium iodide staining based flow cytometric analysis (reference value: 16.3%). Format: functional.
Assay [23] has as its system MCF7. Nature of the assay: Induction of apoptosis in human MCF7 cells assessed as late apoptotic cells at IC50 after 48 hrs by annexin V-FITC/propidium iodide staining based flow cytometric analysis (reference value: 0.0%). Format: functional.
Assay [24] concerns MCF7. Nature of the assay: Induction of apoptosis in human MCF7 cells assessed as increase in cleaved caspase-7 level at IC50 after 48 hrs by western blot analysis. It is filed as functional, cell-based.
Assay [25] concerns MCF7. Description: Induction of apoptosis in human MCF7 cells assessed as polarized mitochondrial membrane at IC50 after 48 hrs by JC-1 dye based FACS analysis (reference value: 90%). It is filed as functional.
The subject of assay [26] is MCF7. Description: Induction of apoptosis in human MCF7 cells assessed as late apoptotic cells at IC50 after 24 hrs by annexin V-FITC/propidium iodide staining based flow cytometric analysis (reference value: 0.0%). It is filed as functional.

Structures are written as SMILES. The source made the active and inactive calls. The calls are words filed in the database; no cut-off is given here.

Take `C=C1CC[C@@H]2[C@](C)(CO)[C@H](O)CC[C@@]2(C)[C@@H]1CC1CN(Cc2ccccc2)[C@@]2(C(=O)Nc3ccc(Cl)cc32)[C@]12C(=O)OC[C@H]2O` (some centres not stated): the Activity is on record as 42.9% in [1]; 28.5% in assay [3]; 29.5% in assay [4]; 84.8% in assay [5]; 0.9% in [6]; 7.9% in [8]. In addition, the Activity was 99.4% in assay [9]; 35.8% in [11]; 0.2% in [12]; 71.5% in assay [13]; 89.8% in [15]; 20.2% in assay [16]. Besides, the Activity was 42.7% in assay [17]; 62.3% in assay [18]; “tde” in [19]; 37.7% in [21]; 27.8% in assay [22]; 7.1% in assay [23]. For the same molecule, the results for the Activity in [25] and in assay [26] were 10.2% and 0.7%, respectively. For the same molecule, the result in assay [2], in assay [10], in assay [14], in [20] and in [24] was Active. For the same molecule, in assay [7], the IC50 is 12.7 µM.
Consider `C=C1CC[C@@H]2[C@](C)(CO)[C@H](O)CC[C@@]2(C)[C@@H]1CC1CN(Cc2ccccc2)[C@@]2(C(=O)Nc3c(F)cccc32)[C@]12C(=O)OC[C@H]2O` (some centres not stated), for which the Activity in assay [1] worked out at 33.3%; in assay [3], 22.7%; in [4] it was 22.2%; in assay [5], 57.8%; in assay [6], 0.6%; in assay [8], 36.7%. Further, the Activity in [9] came to 96.2%; in assay [11], 48.1%; in assay [12] it was 1.4%; in [13], 76.3%; in assay [15] it was 97.5%; in assay [16] it was 17.4%. Moreover, the Activity in assay [17] was 46.6%; in assay [18], 50%; in assay [19], “tde”; in [21], 50.1%; in [22], 31.1%; in assay [23] it was 4.1%. Further, the Activity turned out to be 2.5% in [25] and 0.4% in assay [26]. The outcome in assay [2], in assay [10], in assay [14], in assay [20] and in assay [24] was Active. For the same molecule, the IC50 in assay [7] is 13.7 µM.
As to `C=C1CC[C@@H]2[C@](C)(CO)[C@H](O)CC[C@@]2(C)[C@@H]1CC1CN(Cc2ccccc2)[C@@]2(C(=O)c3cccc4cccc2c34)[C@]12C(=O)OC[C@H]2O` (some centres not stated), the Activity was 32.3% in assay [1]; 42.4% in assay [3]; 29.8% in [4]; 95% in [5]; 0.3% in [6]; 0.4% in assay [8]. For the same molecule, the Activity turned out to be 97.7% in [9]; 38.6% in assay [11]; 0% in assay [12]; 56.5% in assay [13]; 96.4% in assay [15]; 27.5% in assay [16]. Besides, the Activity in [17] was 46.3%; in [18], 83%; in assay [19] it was “tde”; in assay [21], 17%; in [22] it was 23.9%; in [23], 4.6%. Further, the Activity was 3.6% in [25] and 0.8% in [26]. The result in [2], in assay [10], in assay [14], in assay [20] and in assay [24] was Active. In assay [7], the IC50 came out at 8.9 µM.
Regarding `C=C1CC[C@@H]2[C@](C)(CO)[C@H](O)CC[C@@]2(C)[C@@H]1CC1CN(Cc2ccccc2)[C@@]2(C(=O)Nc3ccc(Br)cc32)[C@]12C(=O)OC[C@H]2O` (some centres not stated), the Activity in assay [1] is listed as 34.2%; in [3], 35.7%; in assay [4], 31.1%; in assay [5] it was 93.9%; in [6], 0.9%; in assay [8] it was 1.7%. The Activity in assay [9] is recorded as 98.1%; in [11], 43%; in [12] it was 0%; in assay [13], 61.4%; in assay [15] it was 93.1%; in [16], 22%. In addition, the Activity is 40.3% in [17]; 46.1% in assay [18]; “tde” in assay [19]; 54.1% in [21]; 28.5% in assay [22]; 4.4% in [23]. The figures for the Activity in assay [25] and in assay [26] were 6.4% and 2%, respectively. In addition, the result in assay [2], in assay [10], in assay [14], in [20] and in assay [24] was Active. For the same molecule, in [7], the IC50 stood at 12.8 µM.
As for `N#CC(C#N)=NNc1cccc(Cl)c1` [CARBONYL CYANIDE M-CHLOROPHENYLHYDRAZONE], the Activity in assay [18] was found to be 100%; in assay [21], 0%.
`C=C1CC[C@@H]2[C@](C)(CO)[C@H](O)CC[C@@]2(C)[C@@H]1CC1CN(Cc2ccccc2)[C@@]2(C(=O)Nc3ccc(C)cc32)[C@]12C(=O)OC[C@H]2O` (some centres not stated): the Activity is on record as 37.9% in assay [1]; 19.7% in [3]; 29.1% in [4]; 18.5% in assay [5]; 0.8% in assay [6]; 77.8% in assay [8]. The Activity in assay [9] was determined as 99.9%; in assay [11], 41.7%; in assay [12], 2.2%; in assay [13] it was 79.2%; in [15], 88.9%; in [16], 19.4%. The Activity was 42.4% in assay [17]; 79% in assay [18]; “tde” in assay [19]; 21% in assay [21]; 28.5% in assay [22]; 1.5% in assay [23]. Also, the Activity in [25] is 11.1%; in [26], 0.6%. Moreover, the result in assay [2], in assay [10], in assay [14], in [20] and in assay [24] was Active. Also, in assay [7], the IC50 was found to be 10.9 µM.

The term IC50 denotes the midpoint of a concentration-inhibition curve.

For the origin of these results see ChEMBL document CHEMBL3734695, “Cytotoxic potential of dispirooxindolo/acenaphthoquino andrographolide derivatives against MCF-7 cell line” (Medchemcomm, 2015).
